In one data set the test system is demodex mites. The conditions noted are these: mineral oil as control and solvent; cited from earlier work.
The test system of the next data set is PLA2. The settings on record: anti-inflammatory; cited from earlier work.
Data set [1] can be described thus: acidity relative to oxalic acid. The data set is classed as physicochemical. The source says: Further, their respective salts, sodium dipicolinate and monosodium phosphate both have essentially neutral pHs and both are known, powerful natural coordination complex chelators that prefer calcium over sodium in all but basic pH environments. […] This calcium coordination effect is why acidic anions dipicolinic acid and phosphoric acid, as well as their respective salts, are commonly used detergent ingredients (European Patent No. EP 0358472 A2, Detergent Compositions). In addition, phosphates (the phosphoric acid salts) are so safe and non-toxic that they are used as food additives and as emulsifiers.

Data set [2] can be described thus: solubility / dispersibility of dipicolinic acid in vehicles. Format: physicochemical. The source says:
As natural emulsifiers, the use of phosphates also greatly expands the possible range of usable solution/suspensions available for the present invention to concomitantly include, along with these phosphates, other arthropod plastron chemical degraders, such as carboxylic, dipicolinic, oxalic acids and their respective salts, as well as terpenes and low molecular weight non-polar alkanes, including cyclic alkanes. Dipicolinic acid is also dually beneficially to this plastron degrading effect because it is also a potent anti-inflammatory PLA2 inhibitor and thus would help reduce the concomitant skin inflammation associated with demodex infestations (U.S. Pat. No. 6,127,393, Antiproliferative, antiinfective, antiinflammatory, autologous immunization agent and method). […] However, the inventor has discovered that dipicolinic acid is soluble in glycerin, a common skin product ingredient, and is colloidal in low molecular weight non-polar solutions and in hyaluronic acid (a very high molecular weight […] common to the eye).

The conditions of data set [3]: cited from earlier work.

As to `CC1=CCC(O)(C(C)C)CC1` (centres unmarked) [terpinen-4-ol], the “activity against demodex mites among tea tree oil ingredients” value with demodex mites is listed as “most active ingredient”.

Turning to `O=C(O)c1cccc(C(=O)O)n1` [dipicolinic acid], the PLA2 inhibition entry in the data set on PLA2 is reported as “potent”. The “times less acidic than oxalic acid” value in data set [1] was “about 10 times”. Besides, the solubility in glycerin entry in data set [2] (glycerin) is “soluble”. Also, in data set [2] (hyaluronic acid), the “state in hyaluronic acid” value is recorded as “colloidal”. Moreover, in data set [2] (low molecular weight non-polar solutions), the “state in low molecular weight non-polar solutions” value is reported as “colloidal”. Further, the solubility in water entry in data set [3] is “limited solubility”.

As to `O=P(O)(O)O` [phosphoric acid], in data set [1], the “times less acidic than oxalic acid” value is reported as “about 10 times”.
